{
  "source": "paper PMC10818824",
  "about": "“In Vitro and In Silico Analysis of the Bindings between Legacy and Novel Per- and Polyfluoroalkyl Substances and Human Serum Albumin” (Toxics, 2024)",
  "data": [
    {"biological_target": "T1, HSA (human serum albumin) (Homo sapiens, UniProt P02768)", "T1 construct": "gene ALB; mature single chain of 585 residues, N-terminal Asp, C-terminal Leu; untagged; monomer", "T1 sequence (P02768 25-609)": "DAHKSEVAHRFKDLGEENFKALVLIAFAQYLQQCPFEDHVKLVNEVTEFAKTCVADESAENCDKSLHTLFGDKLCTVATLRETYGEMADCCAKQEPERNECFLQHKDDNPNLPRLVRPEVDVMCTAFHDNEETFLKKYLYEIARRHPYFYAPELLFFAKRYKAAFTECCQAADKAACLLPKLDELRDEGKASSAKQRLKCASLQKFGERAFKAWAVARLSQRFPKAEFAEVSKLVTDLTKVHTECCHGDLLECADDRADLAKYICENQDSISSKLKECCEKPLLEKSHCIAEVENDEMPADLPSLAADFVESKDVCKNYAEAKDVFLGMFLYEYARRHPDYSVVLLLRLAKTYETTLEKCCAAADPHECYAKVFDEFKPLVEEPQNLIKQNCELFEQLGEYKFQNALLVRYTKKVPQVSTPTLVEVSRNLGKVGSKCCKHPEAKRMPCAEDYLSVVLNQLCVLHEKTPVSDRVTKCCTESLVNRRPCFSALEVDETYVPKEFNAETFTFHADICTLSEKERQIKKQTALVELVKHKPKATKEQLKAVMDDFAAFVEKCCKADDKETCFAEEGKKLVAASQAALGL", "assay": "intrinsic fluorescence quenching, double-log fit", "format": "binding", "set-up": "unit not given here", "settings": "Tris-HCl pH 7.4, room temperature, 30 min, ex 275 nm; ethanol stocks; KA unit not given", "excerpt": "intrinsic fluorescence quenching, double-log fit on HSA (human serum albumin)", "values": [
      {"smiles": "O=C(O)C(F)(F)C(F)OC(F)(F)C(F)(F)C(F)(F)OC(F)(F)F", "note": "(centres unmarked) [NaDONA, sodium dodecafluoro-3H–4,8–dioxanonanoate]", "Binding Constant KA": 93.0894},
      {"smiles": "O=S(=O)(O)C(F)(F)C(F)(F)C(F)(F)F", "note": "[PFPrS]", "Binding Constant KA": 79.4511},
      {"smiles": "O=S(=O)(O)C(F)(F)C(F)(F)OC(F)(F)C(F)(F)C(F)(F)C(F)(F)C(F)(F)C(F)(F)Cl", "note": "[9Cl-PF3ONS, 9–chlorohexadecafluoro–3–oxanone–1–sulfonic acid]", "Binding Constant KA": 117.112},
      {"smiles": "O=S(=O)(O)C(F)(F)C(F)(F)C(F)(F)C(F)(F)C(F)(F)C(F)(F)F", "note": "[PFHxS]", "Binding Constant KA": 157.9429},
      {"smiles": "O=S(=O)(O)C(F)(F)C(F)(F)C(F)(F)C(F)(F)F", "note": "[PFBS]", "Binding Constant KA": 116.4930},
      {"smiles": "O=S(=O)(O)C(F)(F)C(F)(F)OC(F)(F)C(F)(F)C(F)(F)C(F)(F)C(F)(F)C(F)(F)C(F)(F)C(F)(F)Cl", "note": "[11Cl-PF3OUdS, 11–chloroeicosafluoro–3–oxaundecane–1–sulfonic acid]", "Binding Constant KA": 127.6145},
      {"smiles": "O=S(=O)(O)C(F)(F)C(F)(F)C(F)(F)C(F)(F)C(F)(F)C(F)(F)C(F)(F)C(F)(F)F", "note": "[PFOS]", "Binding Constant KA": 394.639},
      {"smiles": "O=C(O)C(F)(F)C(F)(F)C(F)(F)F", "note": "[PFBA]", "Binding Constant KA": 20.3657}
    ]}
  ]
}
